# From patent publication US9993464B2 (SANOFI, priority 2011, dated 2018)
# Where “and” joins values, the source holds several entries; their conditions need not be identical. Identical values can stand only once. Like-named read-outs stand apart in the source and are kept apart here.
# Columns and labels:
# [1] = Level of impurities in dependency on pH and repeated autoclaving (HPLC), Example 6; format: physicochemical
# Method: The appropriate pH value was adjusted by using sodium hydroxide solution (1 M sodium hydroxide) or diluted hydrochloric acid (1 M hydrochloric acid). […] HP Zorbax SB-C18, 3.5 μm • Column material: stainless steel • Column length: 150 mm • Column internal diameter: 4.6 mm • Equilibration of the column: Column must be rinsed with mobile phase B (% B=25) for at least 60 minutes at a flow rate of 1 mL/min prior to sample injection. • Storage of the column: Column can be stored in acetonitrile/water=20/80 (v/v) Mobile Phase A […] The mobile phase was filtered through a 1.5 μm filter. Typically, add 500 mL of mobile phase A to 500 mL of acetonitrile. Mix and degas. [table] Procedure • Flow rate: 1 mL/min • Injection volume: 40 μl • Auto sampler temperature: Set autosampler temperature at +12° C. • Column temperature: […]
# [2] = Level of impurities in dependency on Otamixaban concentration and autoclaving (HPLC), Example 7; format: physicochemical; settings: autoclaving
# Excerpt: The appropriate pH value was adjusted by using sodium hydroxide solution (1 M sodium hydroxide) or diluted hydrochloric acid (1 M hydrochloric acid).
# [3] = Level of impurities in dependency on pH and storage time (HPLC), Example 8; format: physicochemical; settings: 40° C./75% RH
# Method: The appropriate pH value was adjusted by using sodium hydroxide solution (1 M sodium hydroxide) or diluted hydrochloric acid (1 M hydrochloric acid). The prepared vials were autoclaved one time and were stored at 40° C. and 75% RH (relative humidity).
# [4] = test system: models of thrombosis; settings: rodent; cited from earlier work
# [5] = test system: models of thrombosis; settings: canine; cited from earlier work
# [6] = test system: models of thrombosis; settings: porcine; cited from earlier work
# [7] = test system: acute coronary syndrome; settings: humans; cited from earlier work
# [8] = test system: prothrombin fragments 1+2; settings: dose-ranging clinical trial; highest dose regimen; cited from earlier work
# [9] = biological target: T1, factor Xa (Homo sapiens, UniProt P00742); settings: patients with stable coronary artery disease; cited from earlier work
# T1 construct: host or cells: blood of patients (in vivo, clinical trial)
# T1 sequence (P00742 235-488 limits assumed): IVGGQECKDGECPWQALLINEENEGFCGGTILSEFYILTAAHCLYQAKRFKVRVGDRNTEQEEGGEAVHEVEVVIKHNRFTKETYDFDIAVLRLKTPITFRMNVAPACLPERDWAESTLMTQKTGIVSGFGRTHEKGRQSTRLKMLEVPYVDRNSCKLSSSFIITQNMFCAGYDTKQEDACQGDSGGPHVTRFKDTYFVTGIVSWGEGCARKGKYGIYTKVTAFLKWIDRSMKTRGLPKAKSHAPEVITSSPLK
# T1 sequence (P00742 41-179 partner limits assumed): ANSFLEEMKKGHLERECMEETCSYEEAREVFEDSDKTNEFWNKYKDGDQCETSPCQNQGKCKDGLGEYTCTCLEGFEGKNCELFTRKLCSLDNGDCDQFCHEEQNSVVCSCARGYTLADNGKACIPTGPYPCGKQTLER
# [10] = pH 2.5, number of autoclaving 0
# [11] = pH 2.5, number of autoclaving 1
# [12] = pH 3.2, number of autoclaving 0
# [13] = pH 3.2, number of autoclaving 1
# [14] = pH 3.2, number of autoclaving 3
# [15] = pH 3.5, number of autoclaving 0
# [16] = pH 3.5, number of autoclaving 1
# [17] = pH 3.7, number of autoclaving 0
# [18] = pH 3.7, number of autoclaving 1
# [19] = pH 3.7, number of autoclaving 3
# [20] = pH 4.0, number of autoclaving 0
# [21] = pH 4.0, number of autoclaving 1
# [22] = pH 4.2, number of autoclaving 0
# [23] = pH 4.5, number of autoclaving 0
# [24] = pH 4.5, number of autoclaving 1
# [25] = pH 4.7, number of autoclaving 0
# [26] = pH 4.7, number of autoclaving 2
structure (smiles),measurement,setting,value
"COC(=O)[C@H](Cc1cccc(C(=N)N)c1)[C@@H](C)NC(=O)c1ccc(-c2cc[n+]([O-])cc2)cc1 (mixture of isomers) [Otamixaban, Methyl (2R,3R)-2-{3-[amino(imino)methyl]benzyl}-3-{[4-(1-oxidopyridin-4-yl)benzoyl]amino}butanoate]",Increase of Formula II (carbamimidoyl-benzyl butyric acid),[1]; [10],0.10%
same,Increase of Formula III (carbamoyl-benzyl butyric acid methyl ester),[1]; [10],0.39%
same,Increase of Formula II (carbamimidoyl-benzyl butyric acid),[1]; [11],0.33%
same,Increase of Formula III (carbamoyl-benzyl butyric acid methyl ester),[1]; [11],0.71%
same,Increase of Formula II (carbamimidoyl-benzyl butyric acid),"[1]; pH 2.5, number of autoclaving 2",0.56%
same,Increase of Formula III (carbamoyl-benzyl butyric acid methyl ester),"[1]; pH 3.0, number of autoclaving 0",0.39%
same,Increase of Formula III (carbamoyl-benzyl butyric acid methyl ester),"[1]; pH 3.0, number of autoclaving 1",0.74%
same,Increase of Formula II (carbamimidoyl-benzyl butyric acid),[1]; [12],0.08%
same,Increase of Formula III (carbamoyl-benzyl butyric acid methyl ester),[1]; [12],0.39%
same,Increase of Formula II (carbamimidoyl-benzyl butyric acid),[1]; [13],0.15%
same,Increase of Formula III (carbamoyl-benzyl butyric acid methyl ester),[1]; [13],0.76%
same,Increase of Formula II (carbamimidoyl-benzyl butyric acid),"[1]; pH 3.2, number of autoclaving 2",0.21%
same,Increase of Formula II (carbamimidoyl-benzyl butyric acid),[1]; [14],0.27%
same,Increase of Formula III (carbamoyl-benzyl butyric acid methyl ester),[1]; [14],1.50%
same,Increase of Formula II (carbamimidoyl-benzyl butyric acid),[1]; [15],0.08%
same,Increase of Formula III (carbamoyl-benzyl butyric acid methyl ester),[1]; [15],0.39%
same,Increase of Formula II (carbamimidoyl-benzyl butyric acid),[1]; [16],0.12%
same,Increase of Formula III (carbamoyl-benzyl butyric acid methyl ester),[1]; [16],0.81%
same,Increase of Formula II (carbamimidoyl-benzyl butyric acid),"[1]; pH 3.5, number of autoclaving 2",0.17%
same,Increase of Formula II (carbamimidoyl-benzyl butyric acid),"[1]; pH 3.5, number of autoclaving 3",0.21%
same,Increase of Formula II (carbamimidoyl-benzyl butyric acid),[1]; [17],0.08%
same,Increase of Formula III (carbamoyl-benzyl butyric acid methyl ester),[1]; [17],0.39%
same,Increase of Formula II (carbamimidoyl-benzyl butyric acid),[1]; [18],0.11% and 0.12%
same,Increase of Formula III (carbamoyl-benzyl butyric acid methyl ester),[1]; [18],0.87% and 0.84%
same,Increase of Formula II (carbamimidoyl-benzyl butyric acid),"[1]; pH 3.7, number of autoclaving 2",0.16%
same,Increase of Formula II (carbamimidoyl-benzyl butyric acid),[1]; [19],0.20% and 0.19%
same,Increase of Formula III (carbamoyl-benzyl butyric acid methyl ester),[1]; [19],1.80%
same,Increase of Formula II (carbamimidoyl-benzyl butyric acid),[1]; [20],0.08%
same,Increase of Formula III (carbamoyl-benzyl butyric acid methyl ester),[1]; [20],0.39%
same,Increase of Formula II (carbamimidoyl-benzyl butyric acid),[1]; [21],0.12%
same,Increase of Formula III (carbamoyl-benzyl butyric acid methyl ester),[1]; [21],0.95%
same,Increase of Formula II (carbamimidoyl-benzyl butyric acid),"[1]; pH 4.0, number of autoclaving 2",0.16%
same,Increase of Formula II (carbamimidoyl-benzyl butyric acid),"[1]; pH 4.0, number of autoclaving 3",0.19%
same,Increase of Formula II (carbamimidoyl-benzyl butyric acid),[1]; [22],0.07%
same,Increase of Formula III (carbamoyl-benzyl butyric acid methyl ester),[1]; [22],0.39%
same,Increase of Formula II (carbamimidoyl-benzyl butyric acid),"[1]; pH 4.2, number of autoclaving 1",0.13%
same,Increase of Formula II (carbamimidoyl-benzyl butyric acid),"[1]; pH 4.2, number of autoclaving 2",0.18%
same,Increase of Formula II (carbamimidoyl-benzyl butyric acid),"[1]; pH 4.2, number of autoclaving 3",0.22%
same,Increase of Formula II (carbamimidoyl-benzyl butyric acid),[1]; [23],0.08%
same,Increase of Formula III (carbamoyl-benzyl butyric acid methyl ester),[1]; [23],0.39%
same,Increase of Formula II (carbamimidoyl-benzyl butyric acid),[1]; [24],0.15%
same,Increase of Formula III (carbamoyl-benzyl butyric acid methyl ester),[1]; [24],1.40%
same,Increase of Formula II (carbamimidoyl-benzyl butyric acid),"[1]; pH 4.5, number of autoclaving 2",0.24%
same,Increase of Formula II (carbamimidoyl-benzyl butyric acid),"[1]; pH 4.5, number of autoclaving 3",0.30%
same,Increase of Formula II (carbamimidoyl-benzyl butyric acid),[1]; [25],0.08%
same,Increase of Formula III (carbamoyl-benzyl butyric acid methyl ester),[1]; [25],0.39%
same,Increase of Formula II (carbamimidoyl-benzyl butyric acid),"[1]; pH 4.7, number of autoclaving 1",0.20%
same,Increase of Formula II (carbamimidoyl-benzyl butyric acid),[1]; [26],0.32%
same,Increase of Formula III (carbamoyl-benzyl butyric acid methyl ester),[1]; [26],3.20%
same,Increase of Formula II (carbamimidoyl-benzyl butyric acid),"[1]; pH 4.7, number of autoclaving 3",0.43%
same,dependence of Formula III level on Otamixaban concentration or vial volume,[2],independent from the concentration of Otamixaban or vial volume
same,Increase of Formula II (carbamimidoyl-benzyl butyric acid),"[3]; pH 2.5, storage time 0 months",0.33%
same,Increase of Formula III (carbamoyl-benzyl butyric acid methyl ester),"[3]; pH 2.5, storage time 0 months",0.71%
same,Increase of Formula III (carbamoyl-benzyl butyric acid methyl ester),"[3]; pH 2.5, storage time 1 months",0.77%
same,Increase of Formula III (carbamoyl-benzyl butyric acid methyl ester),"[3]; pH 2.5, storage time 3 months",0.86%
same,Increase of Formula II (carbamimidoyl-benzyl butyric acid),"[3]; pH 2.5, storage time 6 months",7.10%
same,Increase of Formula III (carbamoyl-benzyl butyric acid methyl ester),"[3]; pH 2.5, storage time 6 months",0.98%
same,Increase of Formula II (carbamimidoyl-benzyl butyric acid),"[3]; pH 3.0, storage time 0 months",0.18%
same,Increase of Formula III (carbamoyl-benzyl butyric acid methyl ester),"[3]; pH 3.0, storage time 0 months",0.74%
same,Increase of Formula II (carbamimidoyl-benzyl butyric acid),"[3]; pH 3.0, storage time 1 months",0.58%
same,Increase of Formula III (carbamoyl-benzyl butyric acid methyl ester),"[3]; pH 3.0, storage time 1 months",0.82%
same,Increase of Formula III (carbamoyl-benzyl butyric acid methyl ester),"[3]; pH 3.0, storage time 3 months",0.96%
same,Increase of Formula II (carbamimidoyl-benzyl butyric acid),"[3]; pH 3.2, storage time 0 months",0.15%
same,Increase of Formula III (carbamoyl-benzyl butyric acid methyl ester),"[3]; pH 3.2, storage time 0 months",0.76%
same,Increase of Formula II (carbamimidoyl-benzyl butyric acid),"[3]; pH 3.2, storage time 1 months",0.41%
same,Increase of Formula III (carbamoyl-benzyl butyric acid methyl ester),"[3]; pH 3.2, storage time 1 months",0.85%
same,Increase of Formula II (carbamimidoyl-benzyl butyric acid),"[3]; pH 3.2, storage time 3 months",0.93%
same,Increase of Formula III (carbamoyl-benzyl butyric acid methyl ester),"[3]; pH 3.2, storage time 3 months",1.00%
same,Increase of Formula II (carbamimidoyl-benzyl butyric acid),"[3]; pH 3.5, storage time 0 months",0.12%
same,Increase of Formula III (carbamoyl-benzyl butyric acid methyl ester),"[3]; pH 3.5, storage time 0 months",0.81%
same,Increase of Formula II (carbamimidoyl-benzyl butyric acid),"[3]; pH 3.5, storage time 1 months",0.27%
same,Increase of Formula III (carbamoyl-benzyl butyric acid methyl ester),"[3]; pH 3.5, storage time 1 months",0.91%
same,Increase of Formula II (carbamimidoyl-benzyl butyric acid),"[3]; pH 3.5, storage time 3 months",0.55%
same,Increase of Formula II (carbamimidoyl-benzyl butyric acid),"[3]; pH 3.5, storage time 6 months",0.99%
same,Increase of Formula II (carbamimidoyl-benzyl butyric acid),"[3]; pH 3.7, storage time 0 months",0.11%
same,Increase of Formula III (carbamoyl-benzyl butyric acid methyl ester),"[3]; pH 3.7, storage time 0 months",0.87%
same,Increase of Formula II (carbamimidoyl-benzyl butyric acid),"[3]; pH 3.7, storage time 1 months",0.22%
same,Increase of Formula III (carbamoyl-benzyl butyric acid methyl ester),"[3]; pH 3.7, storage time 1 months",0.96%
same,Increase of Formula II (carbamimidoyl-benzyl butyric acid),"[3]; pH 3.7, storage time 3 months",0.42%
same,Increase of Formula II (carbamimidoyl-benzyl butyric acid),"[3]; pH 3.7, storage time 6 months",0.72%
same,Increase of Formula II (carbamimidoyl-benzyl butyric acid),"[3]; pH 4.0, storage time 0 months",0.12%
same,Increase of Formula III (carbamoyl-benzyl butyric acid methyl ester),"[3]; pH 4.0, storage time 0 months",0.95%
same,Increase of Formula II (carbamimidoyl-benzyl butyric acid),"[3]; pH 4.0, storage time 1 months",0.18%
same,Increase of Formula II (carbamimidoyl-benzyl butyric acid),"[3]; pH 4.0, storage time 3 months",0.32%
same,Increase of Formula II (carbamimidoyl-benzyl butyric acid),"[3]; pH 4.0, storage time 6 months",0.52%
same,Increase of Formula II (carbamimidoyl-benzyl butyric acid),"[3]; pH 4.2, storage time 0 months",0.13%
same,Increase of Formula II (carbamimidoyl-benzyl butyric acid),"[3]; pH 4.2, storage time 1 months",0.18%
same,Increase of Formula III (carbamoyl-benzyl butyric acid methyl ester),"[3]; pH 4.2, storage time 1 months",1.20%
same,Increase of Formula II (carbamimidoyl-benzyl butyric acid),"[3]; pH 4.2, storage time 3 months",0.27%
same,Increase of Formula II (carbamimidoyl-benzyl butyric acid),"[3]; pH 4.2, storage time 6 months",0.43%
same,Increase of Formula II (carbamimidoyl-benzyl butyric acid),"[3]; pH 4.5, storage time 0 months",0.15%
same,Increase of Formula III (carbamoyl-benzyl butyric acid methyl ester),"[3]; pH 4.5, storage time 0 months",1.40%
same,Increase of Formula II (carbamimidoyl-benzyl butyric acid),"[3]; pH 4.5, storage time 1 months",0.20%
same,Increase of Formula II (carbamimidoyl-benzyl butyric acid),"[3]; pH 4.5, storage time 3 months",0.30%
same,Increase of Formula II (carbamimidoyl-benzyl butyric acid),"[3]; pH 4.5, storage time 6 months",0.44%
same,Increase of Formula II (carbamimidoyl-benzyl butyric acid),"[3]; pH 4.7, storage time 0 months",0.20%
same,Increase of Formula II (carbamimidoyl-benzyl butyric acid),"[3]; pH 4.7, storage time 1 months",0.25%
same,Increase of Formula II (carbamimidoyl-benzyl butyric acid),"[3]; pH 4.7, storage time 3 months",0.36%
same,Increase of Formula II (carbamimidoyl-benzyl butyric acid),"[3]; pH 4.7, storage time 6 months",0.52%
same,efficacy in models of thrombosis,[4],highly efficacious
same,efficacy in models of thrombosis,[5],highly efficacious
same,efficacy in models of thrombosis,[6],highly efficacious
same,"clinical findings: efficacy, safety, tolerability",[7],"efficacious, safe and well tolerated"
same,reduction of prothrombin fragments 1+2 versus unfractionated heparin,[8],reduced prothrombin fragments 1+2 significantly more than unfractionated heparin
same,factor Xa inhibition in patients,[9],"dose-dependent, rapid direct factor Xa inhibition"
